Data on 37 molecules can be found in patent US20240327393A1 (SIRONAX LTD., priority 2021, published 2024).

The experiment deals with HT-1080 (ATCC, CCL-121) cells. Briefly: HT-1080 cell viability assay with ferroptosis inducer RSL3 (Cell Titer-Glo). The experiment is classed as cell-based. To be noted: HT-1080 cells treated with RSL3, 3-fold, 10-point dilution, 1.1 μM highest concentration, read-out: EC50 (nM), ferroptosis inhibitory activity. The gist of the method:
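HT-1080 cells (6000 per well) were cultured overnight at 37 °C, then co-treated with RSL3 and compound in a 3-fold, 10-point series topping at 1.1 μM. Viability was read by CellTiter-Glo luminescence and normalized to untreated controls. EC50 came from a sigmoidal non-linear regression fit.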
(In general: In ATP-based viability assays light output follows the ATP content of the culture.)

By EC50 is commonly meant the concentration giving half of the maximal effect.

SMILES strings stand for the structures. Where two headings read alike, the source gives them in different places.

With `COCCOCCN(C)c1ccc(Nc2ccc3c(c2)n(C)c(=O)n3C)cc1` [Compound 369, 5-((4-((2-(2-methoxyethoxy)ethyl)(methyl)amino)phenyl)amino)-1,3-dimethyl-1,3-dihydro-2H-benzo[d]imidazol-2-one], the EC50 (Homo sapiens, Table 2) is 100 to 1000 nM. On to `FC1(F)CCN(c2ccc(Nc3ccc4c(c3)CNC4)cc2)CC1` [Compound 165, N-(4-(4,4-difluoropiperidin-1-yl)phenyl)isoindolin-5-amine], for which the EC50 (Homo sapiens, Table 2) was in the range of 0.1 to 100 nM. `Cn1c(=O)n(C)c2cc(Nc3ccc(N4CCC(O)(C(F)(F)F)CC4)cc3)ccc21` [Compound 332, 5-((4-(4-hydroxy-4-(trifluoromethyl)piperidin-1-yl)phenyl)amino)-1,3-dimethyl-1,3-dihydro-2H-benzo[d]imidazol-2-one]: the EC50 (Homo sapiens, Table 2) lay in the range of 0.1 to 100 nM. For the molecule `O=C1COc2cc(Nc3ccc(N4CCC(C(F)(F)F)CC4)cc3F)ccc2N1` [Compound 466, 7-((2-fluoro-4-(4-(trifluoromethyl)piperidin-1-yl)phenyl)amino)-2H-benzo[b][1,4]oxazin-3(4H)-one], the concentration for a half-maximal effect (EC50) (Homo sapiens, Table 3) was in the range of 0.1 to 100 nM. Turning to `CCC1Oc2cc(Nc3ccc(N4CC(C)OC(C)C4)cc3)ccc2NC1=O` (stereo not shown) [Compound 154, 7-((4-(2,6-dimethylmorpholino)phenyl)amino)-2-ethyl-2H-benzo[b][1,4]oxazin-3(4H)-one], the EC50 (Homo sapiens, Table 2) lay in the range of 0.1 to 100 nM. Turning to `Cn1c(N(CC2CC2)CC2CC2)cc2ccc(Nc3ccc(N4CCC(C(F)(F)F)CC4)cc3)cc21` [Compound 397, N2,N2-bis(cyclopropylmethyl)-1-methyl-N6-(4-(4-(trifluoromethyl)piperidin-1-yl)phenyl)-1H-indole-2,6-diamine], the EC50 (Homo sapiens, Table 2) fell in the range of 0.1 to 100 nM. Turning to `Cc1cc(N2CC(C)N(CC(F)(F)F)C(C)C2)ccc1Nc1ccc2c(c1)OCC(=O)N2` (stereo not shown) [Compound 519, 7-((4-(3,5-dimethyl-4-(2,2,2-trifluoroethyl)piperazin-1-yl)-2-methylphenyl)amino)-2H-benzo[b][1,4]oxazin-3(4H)-one], the EC50 (Homo sapiens, Table 3) lay in the range of 0.1 to 100 nM. With `CCN(CC)c1nc2ccc(Nc3ccc(N4CCC(C(F)(F)F)CC4)cc3)cc2n1C` [Compound 402, N2,N2-diethyl-1-methyl-N6-(4-(4-(trifluoromethyl)piperidin-1-yl)phenyl)-1H-benzo[d]imidazole-2,6-diamine], where the note is “Homo sapiens, Table 2”, the EC50 was in the range of 0.1 to 100 nM.

For `CC1CCC(C)N1c1ccc(Nc2ccc3c(=O)n(C)[nH]c3c2)cc1` (stereo not shown) [Compound 259, 6-((4-(2,5-dimethylpyrrolidin-1-yl)phenyl)amino)-2-methyl-1,2-dihydro-3H-indazol-3-one], for the setting “Homo sapiens, Table 2”, the EC50 is 0.1 to 100 nM. For `Cc1cc(N2CCC2)ccc1Nc1ccc2c(c1)OCC(=O)N2` [Compound 585, 7-((4-(azetidin-1-yl)-2-methylphenyl)amino)-2H-benzo[b][1,4]oxazin-3(4H)-one], the EC50 (Homo sapiens, Table 3) is 0.1 to 100 nM. With `Cc1cc(N2CC(C)(F)C2)ccc1Nc1ccc2c(c1)OCC(=O)N2` [Compound 595, 7-((4-(3-fluoro-3-methylazetidin-1-yl)-2-methylphenyl)amino)-2H-benzo[b][1,4]oxazin-3(4H)-one], the half-maximal effective concentration (EC50) (Homo sapiens, Table 3) lay in the range of 0.1 to 100 nM.

Take `CN1Cc2cc(Nc3ccc4nccn4c3)ccc2C1=O` [Compound 233, 5-(imidazo[1,2-a]pyridin-6-ylamino)-2-methylisoindolin-1-one]: under “Homo sapiens, Table 2”, the EC50 lay within 100 to 1000 nM. Regarding `Cc1cc(Nc2ccc(N3CC(C)OC(C)C3)cc2)cc2c1N(C)C(=O)CO2` (stereo not shown) [Compound 463, 7-{[4-(2,6-dimethylmorpholin-4-yl)phenyl]amino}-4,5-dimethyl-2H-1,4-benzoxazin-3-one], the EC50 (Homo sapiens, Table 3) was 0.1 to 100 nM. As to `Cn1c(=O)oc2ccc(Nc3ccc(N4CCC(CF)CC4)cc3)cc21` [Compound 391, 5-((4-(4-(fluoromethyl)piperidin-1-yl)phenyl)amino)-3-methylbenzo[d]oxazol-2(3H)-one], the EC50 (Homo sapiens, Table 2) lay within 0.1 to 100 nM. With `CCCCCN(CC)c1ccc(Nc2ccc3c(c2)n(C)c(=O)n3C)cc1` [Compound 260, 5-((4-(ethyl(pentyl)amino)phenyl)amino)-1,3-dimethyl-1,3-dihydro-2H-benzo[d]imidazol-2-one], under “Homo sapiens, Table 2”, the EC50 fell in the range of 0.1 to 100 nM. In the case of `O=C1NCc2cc(Nc3ccc(N4CCC(C(F)(F)F)CC4)cc3)ccc21` [Compound 182, 5-((4-(4-(trifluoromethyl)piperidin-1-yl)phenyl)amino)isoindolin-1-one], under “Homo sapiens, Table 2”, the EC50 is 0.1 to 100 nM. For the molecule `CN1C(=O)CCc2cc(Nc3ccc(N4CCC(C(F)(F)F)CC4)cc3)ccc21` [Compound 127, 1-methyl-6-((4-(4-(trifluoromethyl)piperidin-1-yl)phenyl)amino)-3,4-dihydroquinolin-2(1H)-one], for the setting “Homo sapiens, Table 2”, the EC50 was 0.1 to 100 nM. With `Cc1cc(N2CC(C)OC(C)C2)ccc1Nc1ccc2c(c1)ncn2C` (stereo not shown) [Compound 447, N-(4-(2,6-dimethylmorpholino)-2-methylphenyl)-1-methyl-1H-benzo[d]imidazol-5-amine], where the note is “Homo sapiens, Table 2”, the EC50 lay within 0.1 to 100 nM. For the molecule `Cc1cc(Nc2ccc3c(c2)OCC(=O)N3)ccc1N1CC2CCC(C1)O2` [Compound 146, 7-((4-(8-oxa-3-azabicyclo[3.2.1]octan-3-yl)-3-methylphenyl)amino)-2H-benzo[b][1,4]oxazin-3(4H)-one], the EC50 (Homo sapiens, Table 2) is 0.1 to 100 nM.

For `CC1CCN(c2ccc(Nc3ccc4c(c3)ncn4C)cc2)CC1` [Compound 285, 1-methyl-N-(4-(4-methylpiperidin-1-yl)phenyl)-1H-benzo[d]imidazol-5-amine], the EC50 (Homo sapiens, Table 2) was 0.1 to 100 nM. On to `Cc1cc(N2CCC(C(F)(F)F)CC2)ccc1Nc1ccc2c(c1)OCCNC2=O` [Compound 531, 8-((2-methyl-4-(4-(trifluoromethyl)piperidin-1-yl)phenyl)amino)-3,4-dihydrobenzo[f][1,4]oxazepin-5(2H)-one], for which the 50% effective concentration (EC50) (Homo sapiens, Table 3) was in the range of 0.1 to 100 nM.

Turning to `CN1Cc2cc(Nc3ccc(Oc4ccc(Cl)cc4)cc3)ccc2C1=O` [Compound 232, 5-((4-(4-chlorophenoxy)phenyl)amino)-2-methylisoindolin-1-one], under “Homo sapiens, Table 2”, the EC50 fell in the range of 0.1 to 100 nM. On to `O=C1COc2cc(Nc3ccc(N4C5CCC4CC5)cc3)ccc2N1` [Compound 549, 7-((4-(7-azabicyclo[2.2.1]heptan-7-yl)phenyl)amino)-2H-benzo[b][1,4]oxazin-3(4H)-one], for which the EC50 (Homo sapiens, Table 3) lay in the range of 0.1 to 100 nM. As for `CN1Cc2cc(Nc3cnc(N4CCCCC4)c(F)c3)ccc2C1=O` [Compound 183, 5-((5-fluoro-6-(piperidin-1-yl)pyridin-3-yl)amino)-2-methylisoindolin-1-one], the EC50 (Homo sapiens, Table 2) lay in the range of 0.1 to 100 nM. Same read-out and setting: as for `Cn1cnc2ccc(Nc3ccc(N4CCC(C(F)(F)F)CC4)cc3)cc21` [Compound 350, 1-methyl-N-(4-(4-(trifluoromethyl)piperidin-1-yl)phenyl)-1H-benzo[d]imidazol-6-amine], the figure is 0.1 to 100 nM.

As for `Cc1cc(N2C[C@@H](C)O[C@@H](C)C2)ccc1Nc1ccc2[nH]cnc2c1` [Compound 493, N-(4-((2R,6S)-2,6-dimethylmorpholino)-2-methylphenyl)-1H-benzo[d] imidazol-5-amine], the EC50 (Homo sapiens, Table 3) fell in the range of 0.1 to 100 nM.

Turning to `CN1CCN(CC(=O)N2CCc3cc(Nc4ccc(N5CCCCC5)cc4)ccc3C2)CC1` [Compound 103, 2-(4-methylpiperazin-1-yl)-1-(6-((4-(piperidin-1-yl)phenyl)amino)-3,4-dihydroisoquinolin-2(1H)-yl)ethan-1-one], the EC50 (Homo sapiens, Table 2) was 100 to 1000 nM. `CC1CCN(c2ccc(Nc3cc(Cl)c4c(c3)CN(C(=O)C(F)(F)F)C4)cc2)CC1` [Compound 253, 1-(4-chloro-6-((4-(4-methylpiperidin-1-yl)phenyl)amino)isoindolin-2-yl)-2,2,2-trifluoroethan-1-one]: the EC50 (Homo sapiens, Table 2) fell in the range of 0.1 to 100 nM.

As for `Cc1cc(N2CC(C(F)(F)F)C2)ccc1Nc1ccc2c(c1)OCCC(=O)N2` [Compound 590], where the note is “Homo sapiens, Table 3”, the EC50 is 0.1 to 100 nM. As to `CCN(CCCOC)c1ccc(Nc2ccc3c(c2)OCC(=O)N3C)cc1` [Compound 31, 7-((4-(ethyl(3-methoxypropyl)amino)phenyl)amino)-4-methyl-2H-benzo[b][1,4]oxazin-3(4H)-one], the EC50 (Homo sapiens, Table 2) fell in the range of 0.1 to 100 nM. In the case of `CC1CN(c2ccc(Nc3ccc4c(c3)nc(N)n4C)cc2)CC(C)O1` (stereo not shown) [Compound 435], the EC50 (Homo sapiens, Table 2) lay in the range of 0.1 to 100 nM. On to `Cc1cc(N2CCC(C(F)(F)F)CC2)ccc1Nc1cc2c(cc1C)NC(=O)CO2` [Compound 512, 6-methyl-7-((2-methyl-4-(4-(trifluoromethyl)piperidin-1-yl)phenyl)amino)-2H-benzo[b][1,4]oxazin-3(4H)-one], for which, for the setting “Homo sapiens, Table 3”, the EC50 lay in the range of 0.1 to 100 nM. In the case of `CN1Cc2ccc(Nc3ccc(N4CCC(F)(F)CC4)cc3)cc2C1=O` [Compound 168, 6-((4-(4,4-difluoropiperidin-1-yl)phenyl)amino)-2-methylisoindolin-1-one], where the note is “Homo sapiens, Table 2”, the EC50 fell in the range of 0.1 to 100 nM.

Take `Cc1cc(Nc2ccc3c(c2)OCC(=O)N3CCO)ccc1N1CC(C)OC(C)C1` (stereo not shown) [Compound 455, 7-((4-(2,6-dimethylmorpholino)-3-methylphenyl)amino)-4-(2-hydroxyethyl)-2H-benzo[b][1,4]oxazin-3(4H)-one]: where the note is “Homo sapiens, Table 3”, the EC50 lay in the range of 0.1 to 100 nM. With `Cc1cc(N2CCC(C(F)(F)F)CC2)ccc1Nc1cc(C)c2c(c1)OCC(=O)N2` [Compound 473, 5-methyl-7-((2-methyl-4-(4-(trifluoromethyl)piperidin-1-yl)phenyl)amino)-2H-benzo[b][1,4]oxazin-3(4H)-one], where the note is “Homo sapiens, Table 3”, the EC50 was 0.1 to 100 nM. For `CC(=O)Nc1nn(C)c2ccc(Nc3ccc(N4CCC(C)CC4)cc3)cc12` [Compound 356, N-(1-methyl-5-((4-(4-methylpiperidin-1-yl)phenyl)amino)-1H-indazol-3-yl) acetamide], the EC50 (Homo sapiens, Table 2) fell in the range of 0.1 to 100 nM.

In the case of `CC1CN(c2ccc(Nc3ccc4c(c3)OC(C)C(=O)N4)cc2)CC(C)O1` (stereo not shown) [Compound 144, 7-((4-(2,6-dimethylmorpholino)phenyl)amino)-2-methyl-2H-benzo[b][1,4]oxazin-3(4H)-one], the EC50 (Table 2) lay in the range of 0.1 to 100 nM.
